In paper PMC4203401 (Journal of Medicinal Chemistry, 2014):

Key:
[1] = target: polymerase function of RT (Human immunodeficiency virus type 1 group M subtype B, UniProt P04585); test: HIV-1 RT polymerase inhibition; assay type: biochemical
HTLV-IIIB = details: read-out: EC50, originally reported; HTLV-IIIB-based infection assay; ref 19b; cited from earlier work
[2] = target: HIV-1 RT-associated RNase H activity (Human immunodeficiency virus type 1 group M subtype B, UniProt P04585); test: HIV-1 RT RNase H inhibition; assay type: biochemical
[3] = target: HIV-1 IN (rIN), strand transfer (Human immunodeficiency virus type 1 group M subtype B, UniProt P04585); test: HIV-1 IN gel-based assay, strand transfer; assay type: biochemical; details: IC50 for strand transfer
HIV-1(IIIB) = test: HIV-1 replication inhibition in HeLa-CD4-LTR-β-gal cells; assay type: cell-based

| Compound | Inhibition of polymerase function of RT (inactive up to) [1] [µM] | IC50 [3] [nM] | Ability to inhibit RNase H [2] | other results |
| --- | --- | --- | --- | --- |
| C[C@@H]1CCO[C@H]2Cn3cc(C(=O)NCc4ccc(F)cc4F)c(=O)c(O)c3C(=O)N12 [Compound 3, dolutegravir] |  |  | inactive |  |
| CCOC(=O)/C(O)=C/C(=O)c1cn(Cc2ccc(F)cc2)c2cc(N(C)C)ccc2c1=O [Compound 11g, 4-[1-[(4-Fluorophenyl)methyl]-7-(dimethylamino)-4-(1H)-quinolinon-3-yl]-2-hydroxy-4-oxo-2-butenoic Acid Ethyl Ester] |  |  |  | SI, selectivity index (CC50/EC50) (HIV-1(IIIB); CC50/EC50 in HeLa cells): 20 |
| Cc1nnc(C(=O)NC(C)(C)c2nc(C(=O)NCc3ccc(F)cc3)c(O)c(=O)n2C)o1 [Compound 2, raltegravir] |  |  | inactive |  |

Second part, led by results:

| Inhibition of polymerase function of RT (inactive up to) [1] [µM] | IC50 [3] [nM] | Compound | Ability to inhibit RNase H [2] | other results |
| --- | --- | --- | --- | --- |
| > 40 |  | O=C(O)/C(O)=C/C(=O)c1cn(Cc2ccc(F)cc2)c2cc(N3CCCC3)ccc2c1=O [Compound 7b, reference compound] |  | EC50 (HTLV-IIIB): 170 nM |
| > 40 | < 100 | O=C(O)/C(O)=C/C(=O)c1cn(Cc2ccc(F)cc2)c2cc(N3CCN(CCCCl)CC3)ccc2c1=O [Compound 12i, 4-[1-[(4-Fluorophenyl)methyl]-7-[N-(3-chloroprop-1-yl)piperazin-1-yl]-4-(1H)-quinolinon-3-yl]-2-hydroxy-4-oxo-2-butenoic Acid] |  | Block of HIV-1 replication (HIV-1(IIIB); HeLa-CD4-LTR-β-gal cells, HIV-1(IIIB)): unable to block replication |
| > 40 | < 100 | O=C(O)/C(O)=C/C(=O)c1cn(Cc2ccc(F)cc2)c2cc(N3CCOCC3)ccc2c1=O [Compound 12f, 4-[1-[(4-Fluorophenyl)methyl]-7-(morpholin-4-yl)-4-(1H)-quinolinon-3-yl]-2-hydroxy-4-oxo-2-butenoic Acid] |  |  |
